Measurements from PubChem BioAssay (NCI).
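A five-concentration, 48-hour dose response in 96-well plates underlies each endpoint, interpolated linearly between surrounding concentrations. TGI denotes the concentration required for complete inhibition of growth.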

Tests used:
Assay in all cases: NCI anticancer screen, dose series, 48 h
OVCAR-4 ovarian = test system: OVCAR-4 ovarian
HCT-15 colon = test system: HCT-15 colon
UACC-257 melanoma = test system: UACC-257 melanoma
MOLT-4 leukemia = test system: MOLT-4 leukemia
HL-60(TB) leukemia = test system: HL-60(TB) leukemia
HCT-116 colon = test system: HCT-116 colon
COLO 205 colon = test system: COLO 205 colon
CAKI-1 renal = test system: CAKI-1 renal
MALME-3M melanoma = test system: MALME-3M melanoma
DU-145 prostate = test system: DU-145 prostate
786-0 renal = test system: 786-0 renal
SR leukemia = test system: SR leukemia
T-47D breast = test system: T-47D breast
U251 CNS = test system: U251 CNS
SK-OV-3 ovarian = test system: SK-OV-3 ovarian
SF-295 CNS = test system: SF-295 CNS
K-562 leukemia = test system: K-562 leukemia
RPMI-8226 leukemia = test system: RPMI-8226 leukemia
A549 NSCLC = test system: A549 NSCLC
LOX IMVI melanoma = test system: LOX IMVI melanoma
SK-MEL-28 melanoma = test system: SK-MEL-28 melanoma
SNB-19 CNS = test system: SNB-19 CNS
MCF7 breast = test system: MCF7 breast
MDA-MB-435 = test system: MDA-MB-435
ACHN renal = test system: ACHN renal
SN12C renal = test system: SN12C renal
BT-549 breast = test system: BT-549 breast
HT29 colon = test system: HT29 colon
SK-MEL-5 melanoma = test system: SK-MEL-5 melanoma
SW-620 colon = test system: SW-620 colon
UACC-62 melanoma = test system: UACC-62 melanoma
OVCAR-3 ovarian = test system: OVCAR-3 ovarian
NCI-H226 lung = test system: NCI-H226 lung
HOP-62 NSCLC = test system: HOP-62 NSCLC
HS 578T breast = test system: HS 578T breast
SK-MEL-2 melanoma = test system: SK-MEL-2 melanoma
SNB-75 CNS = test system: SNB-75 CNS
IGROV1 ovarian = test system: IGROV1 ovarian
CCRF-CEM leukemia = test system: CCRF-CEM leukemia
MDA-MB-231 breast = test system: MDA-MB-231 breast
EKVX NSCLC = test system: EKVX NSCLC
OVCAR-8 ovarian = test system: OVCAR-8 ovarian
SF-268 CNS = test system: SF-268 CNS
M14 melanoma = test system: M14 melanoma
NCI/ADR-RES ovarian = test system: NCI/ADR-RES ovarian
PC-3 prostate = test system: PC-3 prostate
UO-31 renal = test system: UO-31 renal
OVCAR-5 ovarian = test system: OVCAR-5 ovarian
TK-10 renal = test system: TK-10 renal
HCC-2998 colon = test system: HCC-2998 colon
RXF 393 renal = test system: RXF 393 renal
KM12 colon = test system: KM12 colon
NCI-H23 lung = test system: NCI-H23 lung

Measured: TGI

C[N+]1([O-])CCC(O)(C2CC2)CC1 (stereo not drawn)
> 100 µM: all assays above
